US12018299B2, “Methods and kits for quantifying adenosine-containing molecules” (priority 2017, dated 2024)

Tests used:
MTAN-D198N = MTAN-D198N (Helicobacter pylori, UniProt Q9ZMY2, D198N); conditions: for affinity to MTAN-D198N / displacement of AdoHcy-TAMRA: displacement curves, FIG. 10B
[1] = molecular target: T1, calf intestinal alkaline phosphatase (CIAP) (Bos taurus, UniProt P19111); test: biochemical
Description: (§1) Calf Intestinal Alkaline Phosphatase (CIAP) was obtained from New England Biolabs. […] Reactions were initiated by adding ATP at varying concentrations ranging from 0.1 to 20 μM. Due to the ability of ATP to act as an inhibitor of CIAP at high concentrations, steady-state analysis of the resulting data was fitted to a substrate-inhibition equation in Equation 8, below, using Prism 7.

[2] = molecular target: T1, calf intestinal alkaline phosphatase (CIAP); conditions: read-out: Km of ATP for CIAP; competitive FP assay, 0.25 U/mL CIAP
Description: as §1

CIAP = CIAP (Bos taurus, UniProt P19111); conditions: molybdenum blue-based assay, previous work, cited from earlier work
Sequence of CIAP (P19111 20-506): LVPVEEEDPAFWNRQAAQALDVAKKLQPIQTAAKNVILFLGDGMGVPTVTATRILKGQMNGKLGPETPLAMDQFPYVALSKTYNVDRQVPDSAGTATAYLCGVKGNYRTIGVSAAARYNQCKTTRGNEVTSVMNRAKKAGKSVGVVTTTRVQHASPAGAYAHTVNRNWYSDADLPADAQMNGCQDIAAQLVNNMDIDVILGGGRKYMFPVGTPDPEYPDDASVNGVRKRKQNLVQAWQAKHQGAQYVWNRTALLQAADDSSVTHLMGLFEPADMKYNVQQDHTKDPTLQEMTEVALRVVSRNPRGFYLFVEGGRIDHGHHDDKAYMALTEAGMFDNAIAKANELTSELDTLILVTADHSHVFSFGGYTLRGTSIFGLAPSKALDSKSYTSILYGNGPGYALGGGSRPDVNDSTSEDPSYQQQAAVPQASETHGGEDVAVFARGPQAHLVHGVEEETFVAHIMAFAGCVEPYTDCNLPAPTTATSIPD

HpMTAN = HpMTAN (Helicobacter pylori, UniProt Q9ZMY2); conditions: previously characterized; cited from earlier work
Sequence of HpMTAN (Q9ZMY2 whole entry): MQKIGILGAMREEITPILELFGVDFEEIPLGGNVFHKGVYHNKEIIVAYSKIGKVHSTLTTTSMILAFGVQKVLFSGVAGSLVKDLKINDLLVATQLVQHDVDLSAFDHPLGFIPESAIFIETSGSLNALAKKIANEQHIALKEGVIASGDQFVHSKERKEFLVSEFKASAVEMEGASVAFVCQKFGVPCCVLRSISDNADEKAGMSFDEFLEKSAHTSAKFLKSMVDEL

[3] = molecular target: Mycobacterium smegmatis EgtD (Mycolicibacterium smegmatis, UniProt A0R5M8); conditions: isothermal calorimetry, previously determined; cited from earlier work
Sequence of Mycobacterium smegmatis EgtD (A0R5M8 whole entry): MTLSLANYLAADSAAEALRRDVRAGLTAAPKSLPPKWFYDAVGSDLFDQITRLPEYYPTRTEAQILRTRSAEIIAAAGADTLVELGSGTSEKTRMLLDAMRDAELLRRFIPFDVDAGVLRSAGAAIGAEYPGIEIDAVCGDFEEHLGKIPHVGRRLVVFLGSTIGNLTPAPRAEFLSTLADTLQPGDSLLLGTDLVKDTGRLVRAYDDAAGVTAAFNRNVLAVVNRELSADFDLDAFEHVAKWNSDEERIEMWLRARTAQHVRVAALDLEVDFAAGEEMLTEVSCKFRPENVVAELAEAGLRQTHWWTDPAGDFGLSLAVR

[4] = test system: N[C@@H](Cc1c[nH]cn1)C(=O)O; test: purified protein, by the assay type; conditions: pH 8.0; 25.0 °C

Sequence of MTAN-D198N (Q9ZMY2 whole entry D198N): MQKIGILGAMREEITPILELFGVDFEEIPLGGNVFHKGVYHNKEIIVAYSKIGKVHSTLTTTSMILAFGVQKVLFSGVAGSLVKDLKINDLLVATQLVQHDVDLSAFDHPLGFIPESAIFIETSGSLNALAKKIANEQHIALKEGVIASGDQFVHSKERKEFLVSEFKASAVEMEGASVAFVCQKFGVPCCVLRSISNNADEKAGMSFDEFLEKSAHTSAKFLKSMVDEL
T1 sequence (P19111 20-506): as the sequence (P19111 20-506) above

In the case of `Nc1ncnc2c1ncn2[C@@H]1O[C@H](COP(=O)(O)OP(=O)(O)O)[C@@H](O)[C@H]1O` [ADP, adenosine diphosphate], the “affinity to MTAN-D198N / displacement of AdoHcy-TAMRA” value (shortened to “affinity to MTAN-D198N / displacement”) (MTAN-D198N) is reported as “M affinity”.

For `Nc1ncnc2c1ncn2[C@@H]1O[C@H](COP(=O)(O)O)[C@@H](O)[C@H]1O` [AMP, adenosine monophosphate], the “affinity to MTAN-D198N / displacement” value (MTAN-D198N) was “M affinity”.

In the case of `Nc1ncnc2c1ncn2[C@@H]1O[C@H](COP(=O)(O)OP(=O)(O)OP(=O)(O)O)[C@@H](O)[C@H]1O` [ATP, adenosine triphosphate], the Ki [1] is listed as 7.6 ± 1.8 µM, the Km [2] is listed as 0.9 ± 0.2 µM and the Ki (CIAP; read-out: Ki for substrate inhibition of ATP (CIAP)) is listed as 19 µM. For the same compound, the Km (CIAP; read-out: Km of ATP for CIAP) was 20.5 µM and the “affinity to MTAN-D198N / displacement” value (MTAN-D198N) was “unable to displace AdoHcy-TAMRA”.

For `Nc1ncnc2c1ncn2[C@@H]1O[C@H](CSCC[C@H](N)C(=O)O)[C@@H](O)[C@H]1O` [AdoHcy, S-adenosylhomocysteine], the “affinity with HpMTAN” value (HpMTAN) is given as “low p M affinity” and the “limit of detection, amount” value (MTAN-D198N; 50 μL reactions) is given as “about 0.3 pmol”.

In the case of `C[S+](CC[C@H](N)C(=O)O)C[C@H]1O[C@@H](n2cnc3c(N)ncnc32)[C@H](O)[C@@H]1O` (stereo partly drawn) [AdoMet, S-adenosyl methionine], the Kd [3] is listed as 270 ± 20 µM.

In the case of `N[C@@H](Cc1c[nH]cn1)C(=O)O` [L-histidine], the Kd [3] is listed as 290 ± 14 µM.

With “EgtD (Mycobacterium tuberculosis CDC1551)” the Km [4] was 330 ± 35 µM.
